# Results reported in patent US7282354B2, “Method for producing fermented milk product” (Calpis Co., Ltd., priority 2000, dated 2007).
# Legend:
# ACE = ACE (Homo sapiens, UniProt P12821); assay: ACE inhibitory activity of IPP per unit weight relative to VPP; assay type: biochemical
# [1] = test system: spontaneously hypertensive rat (SHR); conditions: J. Dairy Sci. 78:1253-1257(1995); cited from earlier work
# Sequence of ACE (P12821 30-1306, species assumed): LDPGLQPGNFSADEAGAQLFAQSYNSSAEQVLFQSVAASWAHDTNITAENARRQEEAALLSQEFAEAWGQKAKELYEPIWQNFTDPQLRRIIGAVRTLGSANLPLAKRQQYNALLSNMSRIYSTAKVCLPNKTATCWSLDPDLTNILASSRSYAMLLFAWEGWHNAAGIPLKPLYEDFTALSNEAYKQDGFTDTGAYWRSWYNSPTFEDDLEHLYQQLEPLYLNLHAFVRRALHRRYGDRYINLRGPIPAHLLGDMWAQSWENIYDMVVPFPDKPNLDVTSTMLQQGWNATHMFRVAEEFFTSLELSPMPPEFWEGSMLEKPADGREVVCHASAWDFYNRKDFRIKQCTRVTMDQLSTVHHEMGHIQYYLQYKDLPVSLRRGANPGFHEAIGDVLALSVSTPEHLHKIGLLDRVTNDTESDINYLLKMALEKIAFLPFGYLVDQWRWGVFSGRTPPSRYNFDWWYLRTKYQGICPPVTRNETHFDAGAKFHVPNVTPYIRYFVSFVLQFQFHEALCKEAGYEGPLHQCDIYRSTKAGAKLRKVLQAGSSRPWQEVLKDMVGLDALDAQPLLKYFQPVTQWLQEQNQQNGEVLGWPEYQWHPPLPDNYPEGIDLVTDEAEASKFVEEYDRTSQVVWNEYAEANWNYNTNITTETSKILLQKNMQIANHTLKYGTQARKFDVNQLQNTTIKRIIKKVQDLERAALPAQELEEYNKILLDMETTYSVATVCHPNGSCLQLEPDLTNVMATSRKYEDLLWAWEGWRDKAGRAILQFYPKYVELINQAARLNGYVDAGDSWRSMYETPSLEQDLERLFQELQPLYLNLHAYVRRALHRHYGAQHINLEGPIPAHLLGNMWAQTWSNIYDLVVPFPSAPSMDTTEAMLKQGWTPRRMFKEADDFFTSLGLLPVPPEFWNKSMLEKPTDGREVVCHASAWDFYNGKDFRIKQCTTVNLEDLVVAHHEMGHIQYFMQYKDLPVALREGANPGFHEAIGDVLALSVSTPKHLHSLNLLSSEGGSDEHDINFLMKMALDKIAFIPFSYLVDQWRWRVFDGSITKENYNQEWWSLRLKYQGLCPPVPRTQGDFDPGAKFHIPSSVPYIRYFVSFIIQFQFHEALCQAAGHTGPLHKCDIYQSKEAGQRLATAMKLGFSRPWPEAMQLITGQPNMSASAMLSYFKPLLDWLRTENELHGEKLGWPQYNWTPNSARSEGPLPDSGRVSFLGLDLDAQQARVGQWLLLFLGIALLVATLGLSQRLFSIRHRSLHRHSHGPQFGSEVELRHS
ACE inhibitory activity per unit weight relative to VPP (ACE),Substance,Hypotensive effect [1]
1.7 times that of VPP,Ile-Pro-Pro [IPP],strong hypotensive effect
–,Val-Pro-Pro [VPP],strong hypotensive effect
